Columns and labels:
Assay type in all cases: biochemical
IKKβ = IKKβ (Homo sapiens (Human), UniProt O14920); assay: KinaseProfiler radiometric assay (14-485KP); settings: mean of at least two independent experiments
From the text: In another aspect, disclosed is a method of inhibiting citron kinase in a sample, comprising contacting the sample with a compound described herein (e.g., a compound of formula (I) or a pharmaceutically acceptable salt thereof), or a pharmaceutical composition described herein (e.g., a pharmaceutical composition comprising a compound of formula (I) or a pharmaceutically acceptable salt thereof), in an amount effective to inhibit citron kinase. In some embodiments, the step of contacting the sample with the compound comprises administering the compound to a subject (e.g., a subject) suffering from cancer. Methods of determining kinase inhibition are well known in the art. For example, kinase activity of an enzyme and the inhibitory capacity of a test compound can be determined by measuring enzyme specific phosphorylation of a substrate. Commercial assays and kits can be employed. For example, kinase inhibition can be determined using a radiometric binding assay, such as using KinaseProfiler™ technology (Eurofins Discovery). This assay method directly detects product formation without the use of modified substrates or coupling enzymes. Test compounds are incubated with kinase, substrate, required cofactors and radioisotope labeled ATP. Following incubation, unreacted radioactive ATP is removed by washing and incorporation of the radiolabeled phosphate into the kinase substrate is assayed to detect phosphoryltransferase activity, which is directly proportional to the amount of phosphorylated substrate. Inhibition of the kinase by a kinase inhibitor prevents phosphorylation of the substrate and thereby limits the incorporation of radiolabeled phosphate. Such an assay is compatible with a microwell assay format, allowing simultaneous determination of IC50 of multiple compounds.
The effect of various compounds on the inhibition of other kinases has also been determined. Table 2 reports measured IC50 values; value units are nanomolar inhibition.

AMPKα2(h) = AMPKα2(h) (Homo sapiens (Human), UniProt P54646); assay: KinaseProfiler panel; design: dose or concentration left out as unconfirmed; settings: activity remaining
Aurora-A(h) = Aurora-A(h) (Homo sapiens (Human), UniProt O14965); assay: KinaseProfiler panel; design: dose or concentration left out as unconfirmed; settings: activity remaining
Aurora-B(h) = Aurora-B(h) (Homo sapiens (Human), UniProt Q96GD4); assay: KinaseProfiler panel; design: dose or concentration left out as unconfirmed; settings: activity remaining
CaMKIIγ(h) = CaMKIIγ(h) (Homo sapiens (Human), UniProt Q13555); assay: KinaseProfiler panel; design: dose or concentration left out as unconfirmed; settings: activity remaining
CHK1(h) = CHK1(h) (Homo sapiens (Human), UniProt O14757); assay: KinaseProfiler panel; design: dose or concentration left out as unconfirmed; settings: activity remaining
cSRC(h) = cSRC(h) (Homo sapiens (Human), UniProt P12931); assay: KinaseProfiler panel; design: dose or concentration left out as unconfirmed; settings: activity remaining
DMPK(h) = DMPK(h) (Homo sapiens (Human), UniProt Q09013); assay: KinaseProfiler panel; design: dose or concentration left out as unconfirmed; settings: activity remaining
EphA7(h) = EphA7(h) (Homo sapiens (Human), UniProt Q15375); assay: KinaseProfiler panel; design: dose or concentration left out as unconfirmed; settings: activity remaining
FAK(h) = FAK(h) (Homo sapiens (Human), UniProt Q05397); assay: KinaseProfiler panel; design: dose or concentration left out as unconfirmed; settings: activity remaining
Haspin(h) = Haspin(h) (Homo sapiens (Human), UniProt Q8TF76); assay: KinaseProfiler panel; design: dose or concentration left out as unconfirmed; settings: activity remaining
IR(h) = IR(h) (Homo sapiens (Human), UniProt P06213); assay: KinaseProfiler panel; design: dose or concentration left out as unconfirmed; settings: activity remaining
JAK1(h) = JAK1(h) (Homo sapiens (Human), UniProt P23458); assay: KinaseProfiler panel; design: dose or concentration left out as unconfirmed; settings: activity remaining
MARK4(h) = MARK4(h) (Homo sapiens (Human), UniProt Q96L34); assay: KinaseProfiler panel; design: dose or concentration left out as unconfirmed; settings: activity remaining
MEK1(h) = MEK1(h) (Homo sapiens (Human), UniProt Q02750); assay: KinaseProfiler panel; design: dose or concentration left out as unconfirmed; settings: activity remaining
MLK3(h) = MLK3(h) (Homo sapiens (Human), UniProt Q16584); assay: KinaseProfiler panel; design: dose or concentration left out as unconfirmed; settings: activity remaining
MRCKα(h) = MRCKα(h) (Homo sapiens (Human), UniProt Q5VT25); assay: KinaseProfiler panel; design: dose or concentration left out as unconfirmed; settings: activity remaining
MRCKβ(h) = MRCKβ(h) (Homo sapiens (Human), UniProt Q9Y5S2); assay: KinaseProfiler panel; design: dose or concentration left out as unconfirmed; settings: activity remaining
MSK2(h) = MSK2(h) (Homo sapiens (Human), UniProt O75676); assay: KinaseProfiler panel; design: dose or concentration left out as unconfirmed; settings: activity remaining
NEK3(h) = NEK3(h) (Homo sapiens (Human), UniProt P51956); assay: KinaseProfiler panel; design: dose or concentration left out as unconfirmed; settings: activity remaining
PDK1(h) = PDK1(h) (Homo sapiens (Human), UniProt O15530); assay: KinaseProfiler panel; design: dose or concentration left out as unconfirmed; settings: activity remaining
PIP5K1g(h) = PIP5K1g(h) (Homo sapiens (Human), UniProt O60331); assay: KinaseProfiler panel; settings: activity remaining
PKCα(h) = PKCα(h) (Homo sapiens (Human), UniProt P17252); assay: KinaseProfiler panel; design: dose or concentration left out as unconfirmed; settings: activity remaining
Rse(h) = Rse(h) (Homo sapiens (Human), UniProt Q06418); assay: KinaseProfiler panel; design: dose or concentration left out as unconfirmed; settings: activity remaining
Rsk1(h) = Rsk1(h) (Homo sapiens (Human), UniProt Q15418); assay: KinaseProfiler panel; design: dose or concentration left out as unconfirmed; settings: activity remaining
SAPK3(h) = SAPK3(h) (Homo sapiens (Human), UniProt P53778); assay: KinaseProfiler panel; design: dose or concentration left out as unconfirmed; settings: activity remaining

Chain of Haspin(h) (Q8TF76 whole entry): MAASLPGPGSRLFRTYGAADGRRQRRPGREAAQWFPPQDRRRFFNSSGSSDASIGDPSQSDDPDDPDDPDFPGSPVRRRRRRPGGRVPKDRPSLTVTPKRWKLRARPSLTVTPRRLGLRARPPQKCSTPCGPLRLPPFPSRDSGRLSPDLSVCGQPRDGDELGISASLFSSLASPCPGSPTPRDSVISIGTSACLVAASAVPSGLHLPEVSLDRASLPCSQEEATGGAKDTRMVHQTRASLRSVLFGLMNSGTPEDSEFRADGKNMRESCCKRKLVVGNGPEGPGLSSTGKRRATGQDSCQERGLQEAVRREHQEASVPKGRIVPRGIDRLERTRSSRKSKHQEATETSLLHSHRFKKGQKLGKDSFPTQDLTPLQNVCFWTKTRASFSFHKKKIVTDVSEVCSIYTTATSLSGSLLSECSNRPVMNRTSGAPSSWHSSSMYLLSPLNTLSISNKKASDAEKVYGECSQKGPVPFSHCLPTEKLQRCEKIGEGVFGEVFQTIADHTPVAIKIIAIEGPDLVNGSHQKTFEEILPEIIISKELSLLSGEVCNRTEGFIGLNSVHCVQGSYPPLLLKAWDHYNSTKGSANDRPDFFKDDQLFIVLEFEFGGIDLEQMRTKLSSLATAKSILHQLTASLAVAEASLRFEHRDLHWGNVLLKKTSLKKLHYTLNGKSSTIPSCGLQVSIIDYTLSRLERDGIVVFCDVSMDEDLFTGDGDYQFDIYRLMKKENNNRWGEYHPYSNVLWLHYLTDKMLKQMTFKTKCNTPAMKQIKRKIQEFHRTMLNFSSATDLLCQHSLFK
Chain of NEK3(h) (P51956 whole entry): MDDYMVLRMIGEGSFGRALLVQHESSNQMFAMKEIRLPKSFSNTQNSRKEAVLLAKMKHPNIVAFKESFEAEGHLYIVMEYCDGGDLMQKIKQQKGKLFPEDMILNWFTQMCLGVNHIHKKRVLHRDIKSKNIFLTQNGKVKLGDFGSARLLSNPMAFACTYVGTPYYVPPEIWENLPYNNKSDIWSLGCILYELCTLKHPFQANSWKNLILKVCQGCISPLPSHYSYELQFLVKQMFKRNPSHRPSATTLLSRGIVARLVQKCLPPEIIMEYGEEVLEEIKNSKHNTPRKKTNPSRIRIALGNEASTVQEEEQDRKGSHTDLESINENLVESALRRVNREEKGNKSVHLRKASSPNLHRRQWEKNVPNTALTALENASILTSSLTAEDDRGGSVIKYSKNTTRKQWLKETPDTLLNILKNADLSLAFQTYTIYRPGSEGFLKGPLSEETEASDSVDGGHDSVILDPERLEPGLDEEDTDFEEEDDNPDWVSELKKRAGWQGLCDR
Chain of MLK3(h) (Q16584 whole entry): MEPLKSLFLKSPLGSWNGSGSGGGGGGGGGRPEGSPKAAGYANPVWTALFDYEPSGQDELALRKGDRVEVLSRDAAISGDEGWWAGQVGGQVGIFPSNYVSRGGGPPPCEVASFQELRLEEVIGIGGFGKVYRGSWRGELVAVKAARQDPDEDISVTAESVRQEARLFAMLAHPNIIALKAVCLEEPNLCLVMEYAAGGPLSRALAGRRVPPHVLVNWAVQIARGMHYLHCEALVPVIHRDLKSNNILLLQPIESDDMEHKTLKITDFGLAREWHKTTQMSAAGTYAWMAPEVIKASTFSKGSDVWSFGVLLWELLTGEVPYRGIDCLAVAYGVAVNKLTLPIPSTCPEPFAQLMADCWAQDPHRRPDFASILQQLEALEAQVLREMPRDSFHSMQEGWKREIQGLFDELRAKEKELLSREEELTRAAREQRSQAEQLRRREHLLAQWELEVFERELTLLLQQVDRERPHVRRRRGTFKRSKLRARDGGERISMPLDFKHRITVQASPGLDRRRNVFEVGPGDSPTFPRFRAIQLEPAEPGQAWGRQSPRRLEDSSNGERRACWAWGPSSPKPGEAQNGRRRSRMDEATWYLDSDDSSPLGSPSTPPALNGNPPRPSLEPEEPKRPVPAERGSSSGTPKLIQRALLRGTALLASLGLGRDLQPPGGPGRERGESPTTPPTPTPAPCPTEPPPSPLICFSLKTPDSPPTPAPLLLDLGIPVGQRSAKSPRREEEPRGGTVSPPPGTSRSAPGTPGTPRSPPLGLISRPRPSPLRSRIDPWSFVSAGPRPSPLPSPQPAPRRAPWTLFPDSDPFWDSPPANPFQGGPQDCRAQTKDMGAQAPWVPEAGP
Chain of EphA7(h) (Q15375 28-998): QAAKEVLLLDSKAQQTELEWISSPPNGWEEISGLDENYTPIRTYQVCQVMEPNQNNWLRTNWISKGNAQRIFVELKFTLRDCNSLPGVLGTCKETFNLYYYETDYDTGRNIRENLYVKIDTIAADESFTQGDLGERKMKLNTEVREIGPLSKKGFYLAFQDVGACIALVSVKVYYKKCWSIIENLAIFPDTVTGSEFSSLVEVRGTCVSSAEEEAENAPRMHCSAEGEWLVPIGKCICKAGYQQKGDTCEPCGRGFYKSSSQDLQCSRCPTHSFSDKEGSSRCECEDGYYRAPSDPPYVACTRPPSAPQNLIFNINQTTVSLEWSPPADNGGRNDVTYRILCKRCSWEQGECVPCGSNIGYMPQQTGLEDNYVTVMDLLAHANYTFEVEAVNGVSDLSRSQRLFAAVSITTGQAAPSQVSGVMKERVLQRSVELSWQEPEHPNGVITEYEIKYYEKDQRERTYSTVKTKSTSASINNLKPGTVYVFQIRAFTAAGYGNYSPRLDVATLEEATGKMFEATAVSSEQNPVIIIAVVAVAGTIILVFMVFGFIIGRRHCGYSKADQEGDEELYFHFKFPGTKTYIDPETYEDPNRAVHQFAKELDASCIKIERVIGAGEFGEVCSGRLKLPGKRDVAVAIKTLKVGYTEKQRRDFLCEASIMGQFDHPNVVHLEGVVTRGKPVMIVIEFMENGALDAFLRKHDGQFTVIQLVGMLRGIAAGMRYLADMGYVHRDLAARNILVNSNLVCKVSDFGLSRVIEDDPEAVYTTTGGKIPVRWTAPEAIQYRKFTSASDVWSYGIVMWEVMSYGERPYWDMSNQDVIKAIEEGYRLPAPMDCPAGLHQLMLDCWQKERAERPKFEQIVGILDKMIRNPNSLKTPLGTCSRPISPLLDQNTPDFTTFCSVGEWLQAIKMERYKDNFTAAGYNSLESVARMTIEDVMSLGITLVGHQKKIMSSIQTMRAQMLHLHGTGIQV
Chain of AMPKα2(h) (P54646 whole entry): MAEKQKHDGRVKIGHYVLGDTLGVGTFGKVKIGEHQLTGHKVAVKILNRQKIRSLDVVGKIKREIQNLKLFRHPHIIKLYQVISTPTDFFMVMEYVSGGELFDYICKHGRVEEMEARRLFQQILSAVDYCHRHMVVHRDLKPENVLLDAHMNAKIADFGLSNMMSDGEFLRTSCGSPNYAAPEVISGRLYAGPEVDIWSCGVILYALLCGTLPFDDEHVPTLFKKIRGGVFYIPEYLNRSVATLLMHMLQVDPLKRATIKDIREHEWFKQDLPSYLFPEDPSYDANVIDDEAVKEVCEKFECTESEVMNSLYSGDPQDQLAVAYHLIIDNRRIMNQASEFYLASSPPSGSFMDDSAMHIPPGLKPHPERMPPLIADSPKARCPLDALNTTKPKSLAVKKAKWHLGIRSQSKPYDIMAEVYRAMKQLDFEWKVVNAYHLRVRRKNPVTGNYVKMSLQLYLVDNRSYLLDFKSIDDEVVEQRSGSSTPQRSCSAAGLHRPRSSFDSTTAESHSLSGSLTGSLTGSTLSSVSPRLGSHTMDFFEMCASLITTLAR
Chain of AMPKα2(h) (Q9Y478 whole entry partner): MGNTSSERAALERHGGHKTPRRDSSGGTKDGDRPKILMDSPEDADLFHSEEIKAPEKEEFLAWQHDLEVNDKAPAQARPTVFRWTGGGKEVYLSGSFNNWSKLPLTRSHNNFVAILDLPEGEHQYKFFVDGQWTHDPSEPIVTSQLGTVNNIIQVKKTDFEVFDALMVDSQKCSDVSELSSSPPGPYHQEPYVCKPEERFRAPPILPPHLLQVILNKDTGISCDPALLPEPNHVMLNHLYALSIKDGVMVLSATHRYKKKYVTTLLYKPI
Chain of AMPKα2(h) (P54619 whole entry partner): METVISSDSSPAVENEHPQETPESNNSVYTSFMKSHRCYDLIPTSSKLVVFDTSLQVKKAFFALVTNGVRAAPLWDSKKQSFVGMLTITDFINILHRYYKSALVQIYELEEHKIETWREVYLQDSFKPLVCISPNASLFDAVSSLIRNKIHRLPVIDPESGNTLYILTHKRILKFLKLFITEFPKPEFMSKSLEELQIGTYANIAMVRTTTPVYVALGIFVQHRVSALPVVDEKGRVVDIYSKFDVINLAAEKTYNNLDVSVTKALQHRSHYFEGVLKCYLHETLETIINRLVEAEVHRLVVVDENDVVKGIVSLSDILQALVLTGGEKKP
Chain of CaMKIIγ(h) (Q13555 whole entry): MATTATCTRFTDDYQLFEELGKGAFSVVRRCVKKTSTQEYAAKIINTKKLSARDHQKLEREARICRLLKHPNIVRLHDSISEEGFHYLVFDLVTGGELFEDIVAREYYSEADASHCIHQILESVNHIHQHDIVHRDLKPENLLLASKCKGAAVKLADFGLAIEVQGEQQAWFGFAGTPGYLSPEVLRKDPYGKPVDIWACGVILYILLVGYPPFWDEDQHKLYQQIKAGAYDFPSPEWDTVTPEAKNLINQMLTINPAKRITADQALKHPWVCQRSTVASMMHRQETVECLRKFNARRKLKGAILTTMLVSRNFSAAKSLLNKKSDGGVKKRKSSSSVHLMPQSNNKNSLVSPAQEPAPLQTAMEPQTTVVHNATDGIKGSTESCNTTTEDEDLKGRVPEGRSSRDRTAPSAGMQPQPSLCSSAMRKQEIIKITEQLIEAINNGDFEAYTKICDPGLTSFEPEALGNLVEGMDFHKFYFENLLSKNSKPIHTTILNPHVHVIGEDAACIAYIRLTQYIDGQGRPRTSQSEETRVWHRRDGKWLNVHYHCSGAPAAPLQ

Cc1cc2c(-c3ccc(NC(=O)[C@H](N)CC(C)(C)C)cc3C)ccnc2[nH]1 [Compound F-90, (2R)-2-Amino-4,4-dimethyl-N-[3-methyl-4-(2-methyl-1H-pyrrolo[2,3-b]pyridin-4-yl)phenyl]pentanamide]
IC50 (IKKβ): > 3 µM | % Activity (AMPKα2(h)): 117% | % Activity (Aurora-A(h)): 97% | % Activity (Aurora-B(h)): 109% | % Activity (CaMKIIγ(h)): 106% | % Activity (CHK1(h)): 108% | % Activity (cSRC(h)): 93% | % Activity (DMPK(h)): 93% | % Activity (EphA7(h)): 114% | % Activity (FAK(h)): 96% | % Activity (Haspin(h)): 140% | % Activity (IR(h)): 94% | % Activity (JAK1(h)): 85% | % Activity (MARK4(h)): 92% | % Activity (MEK1(h)): 101% | % Activity (MLK3(h)): 91% | % Activity (MRCKα(h)): 94% | % Activity (MRCKβ(h)): 100% | % Activity (MSK2(h)): 88% | % Activity (NEK3(h)): 110% | % Activity (PDK1(h)): 105% | % Activity (PIP5K1g(h)): 102% | % Activity (PKCα(h)): 92% | % Activity (Rse(h)): 129% | % Activity (Rsk1(h)): 99% | % Activity (SAPK3(h)): 113%

— US20250243196A1, “CITRON KINASE INHIBITORS” (The Cleveland Clinic Foundation, priority 2021, published 2025)
